Experiments:
Format in all cases: in vivo
[1] = test system: redroot pigweed (Amaranthus retroflexus); assay: Test G Post-Emergence Protocol; conditions: Amaranthus retroflexus, post-emergence, 312 h, read-out: Pigweed, Redroot damage rating; for pest or weed control at 15.625 g/ha: 15.625 g ai/ha, evaluated after 13 days (100=total damage to plant; 0=no damage to plant); for pest or weed control at 62.5 g/ha: 62.5 g ai/ha; for pest or weed control at 62.5 g/ha / pest or weed control at 250 g/ha: evaluated after 13 days, 100=total damage to plant, 0=no damage to plant; for pest or weed control at 250 g/ha: 250 g ai/ha
Procedure, shortened: (§1)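 Seedlings grown 8 days in soil in a glasshouse (24/16 °C day/night, 14 h light, 65% humidity) were sprayed post-emergence with compound in acetone/water 50:50 plus 0.5% Tween 20 at 15.625, 62.5 or 250 g/ha. Damage was scored after 13 days on a 0–100 scale (100 = total damage).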

[2] = test system: velvetleaf (Abutilon theophrasti); assay: Test G Post-Emergence Protocol; conditions: Abutilon theophrasti, post-emergence, 312 h, read-out: Velvetleaf damage rating; for pest or weed control at 15.625 g/ha: 15.625 g ai/ha, evaluated after 13 days (100=total damage to plant; 0=no damage to plant); for pest or weed control at 62.5 g/ha: 62.5 g ai/ha; for pest or weed control at 62.5 g/ha / pest or weed control at 250 g/ha: evaluated after 13 days, 100=total damage to plant, 0=no damage to plant; for pest or weed control at 250 g/ha: 250 g ai/ha
Procedure, shortened: as §1

[3] = test system: barnyardgrass (Echinochloa crus-galli); assay: Test G Post-Emergence Protocol; conditions: Echinochloa crus-galli, post-emergence, 312 h, read-out: Barnyardgrass damage rating; for pest or weed control at 15.625 g/ha: 15.625 g ai/ha, evaluated after 13 days (100=total damage to plant; 0=no damage to plant); for pest or weed control at 62.5 g/ha: 62.5 g ai/ha; for pest or weed control at 62.5 g/ha / pest or weed control at 250 g/ha: evaluated after 13 days, 100=total damage to plant, 0=no damage to plant; for pest or weed control at 250 g/ha: 250 g ai/ha
Procedure, shortened: as §1

[4] = test system: giant foxtail (Setaria faberi); assay: Test G Post-Emergence Protocol; conditions: Setaria faberi, post-emergence, 312 h, read-out: Foxtail, Giant damage rating; for pest or weed control at 15.625 g/ha: 15.625 g ai/ha, evaluated after 13 days (100=total damage to plant; 0=no damage to plant); for pest or weed control at 62.5 g/ha: 62.5 g ai/ha; for pest or weed control at 62.5 g/ha / pest or weed control at 250 g/ha: evaluated after 13 days, 100=total damage to plant, 0=no damage to plant; for pest or weed control at 250 g/ha: 250 g ai/ha
Procedure, shortened: as §1

corn (Zea mays) [5] = assay: Test G Post-Emergence Protocol; conditions: Zea mays, post-emergence, 312 h, read-out: Corn damage rating; for plant injury at 15.625 g/ha: 15.625 g ai/ha, evaluated after 13 days (100=total damage to plant; 0=no damage to plant); for plant injury at 62.5 g/ha: 62.5 g ai/ha; for plant injury at 62.5 g/ha / plant injury at 250 g/ha: evaluated after 13 days, 100=total damage to plant, 0=no damage to plant; for plant injury at 250 g/ha: 250 g ai/ha
Procedure, shortened: as §1

[6] = test system: ivy-leaved morning glory (Ipomoea hederacea); assay: Test G Post-Emergence Protocol; conditions: Ipomoea, post-emergence, 312 h, read-out: Morningglory, Ivy-leaved damage rating; for pest or weed control at 15.625 g/ha: 15.625 g ai/ha, evaluated after 13 days (100=total damage to plant; 0=no damage to plant); for pest or weed control at 62.5 g/ha: 62.5 g ai/ha; for pest or weed control at 62.5 g/ha / pest or weed control at 250 g/ha: evaluated after 13 days, 100=total damage to plant, 0=no damage to plant; for pest or weed control at 250 g/ha: 250 g ai/ha
Procedure, shortened: as §1

[7] = test system: redroot pigweed (Amaranthus retroflexus); assay: Test G Pre-Emergence Protocol; conditions: Amaranthus retroflexus, pre-emergence, 312 h, evaluated after 13 days; for pest or weed control at 15.625 g/ha: 15.625 g ai/ha; for pest or weed control at 15.625 g/ha / pest or weed control at 250 g/ha: read-out: Pigweed, Redroot damage rating (100=total damage to plant; 0=no damage to plant); for pest or weed control at 62.5 g/ha: 62.5 g ai/ha, 100=total damage to plant, 0=no damage to plant, read-out: Pigweed, Redroot damage rating; for pest or weed control at 250 g/ha: 250 g ai/ha
Procedure, shortened: (§2)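 Spraying took place one day after sowing, at 15.625, 62.5 or 250 g/ha, using an acetone/water (50:50) spray solution containing 0.5% Tween 20. Plants were kept under glasshouse conditions (24/16 °C, 14 h light, 65% humidity, watered twice daily), and injury was rated 0–100 at day 13.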

[8] = test system: velvetleaf (Abutilon theophrasti); assay: Test G Pre-Emergence Protocol; conditions: Abutilon theophrasti, pre-emergence, 312 h, evaluated after 13 days; for pest or weed control at 15.625 g/ha: 15.625 g ai/ha; for pest or weed control at 15.625 g/ha / pest or weed control at 250 g/ha: read-out: Velvetleaf damage rating (100=total damage to plant; 0=no damage to plant); for pest or weed control at 62.5 g/ha: 62.5 g ai/ha, 100=total damage to plant, 0=no damage to plant, read-out: Velvetleaf damage rating; for pest or weed control at 250 g/ha: 250 g ai/ha
Procedure, shortened: as §2

[9] = test system: barnyardgrass (Echinochloa crus-galli); assay: Test G Pre-Emergence Protocol; conditions: Echinochloa crus-galli, pre-emergence, 312 h, evaluated after 13 days; for pest or weed control at 15.625 g/ha: 15.625 g ai/ha; for pest or weed control at 15.625 g/ha / pest or weed control at 250 g/ha: read-out: Barnyardgrass damage rating (100=total damage to plant; 0=no damage to plant); for pest or weed control at 62.5 g/ha: 62.5 g ai/ha, 100=total damage to plant, 0=no damage to plant, read-out: Barnyardgrass damage rating; for pest or weed control at 250 g/ha: 250 g ai/ha
Procedure, shortened: as §2

[10] = test system: giant foxtail (Setaria faberi); assay: Test G Pre-Emergence Protocol; conditions: Setaria faberi, pre-emergence, 312 h, evaluated after 13 days; for pest or weed control at 15.625 g/ha: 15.625 g ai/ha; for pest or weed control at 15.625 g/ha / pest or weed control at 250 g/ha: read-out: Foxtail, Giant damage rating (100=total damage to plant; 0=no damage to plant); for pest or weed control at 62.5 g/ha: 62.5 g ai/ha, 100=total damage to plant, 0=no damage to plant, read-out: Foxtail, Giant damage rating; for pest or weed control at 250 g/ha: 250 g ai/ha
Procedure, shortened: as §2

corn (Zea mays) [11] = assay: Test G Pre-Emergence Protocol; conditions: Zea mays, pre-emergence, 312 h, evaluated after 13 days; for plant injury at 15.625 g/ha: 15.625 g ai/ha; for plant injury at 15.625 g/ha / plant injury at 250 g/ha: read-out: Corn damage rating (100=total damage to plant; 0=no damage to plant); for plant injury at 62.5 g/ha: 62.5 g ai/ha, 100=total damage to plant, 0=no damage to plant, read-out: Corn damage rating; for plant injury at 250 g/ha: 250 g ai/ha
Procedure, shortened: as §2

[12] = test system: ivy-leaved morning glory (Ipomoea hederacea); assay: Test G Pre-Emergence Protocol; conditions: Ipomoea, pre-emergence, 312 h, evaluated after 13 days; for pest or weed control at 15.625 g/ha: 15.625 g ai/ha; for pest or weed control at 15.625 g/ha / pest or weed control at 250 g/ha: read-out: Morningglory, Ivy-leaved damage rating (100=total damage to plant; 0=no damage to plant); for pest or weed control at 62.5 g/ha: 62.5 g ai/ha, 100=total damage to plant, 0=no damage to plant, read-out: Morningglory, Ivy-leaved damage rating; for pest or weed control at 250 g/ha: 250 g ai/ha
Procedure, shortened: as §2

Compound | pest or weed control at 15.625 g/ha [1] [%] | pest or weed control at 62.5 g/ha [1] [%] | pest or weed control at 250 g/ha [1] [%] | pest or weed control at 15.625 g/ha [2] [%] | pest or weed control at 62.5 g/ha [2] [%] | pest or weed control at 250 g/ha [2] [%] | pest or weed control at 15.625 g/ha [3] [%] | pest or weed control at 62.5 g/ha [3] [%] | pest or weed control at 250 g/ha [3] [%] | pest or weed control at 15.625 g/ha [4] [%] | pest or weed control at 62.5 g/ha [4] [%] | pest or weed control at 250 g/ha [4] [%] | plant injury at 15.625 g/ha (corn (Zea mays) [5]) [%] | plant injury at 62.5 g/ha (corn (Zea mays) [5]) [%] | plant injury at 250 g/ha (corn (Zea mays) [5]) [%] | pest or weed control at 15.625 g/ha [6] [%] | pest or weed control at 62.5 g/ha [6] [%] | pest or weed control at 250 g/ha [6] [%] | pest or weed control at 15.625 g/ha [7] [%] | pest or weed control at 62.5 g/ha [7] [%] | further results
CN1C[C@H](c2ccc(C(F)(F)F)cc2)[C@@H](C(=O)Nc2cc(C#N)ccn2)C1=O (racemic) [Compound 1734] | 0 | 0 | 0 | 0 | 0 | 0 | 0 | 0 | 0 | 0 | 0 | 0 | 0 | 0 | 0 | 0 | 0 | 0 | 0 | 0 | pest or weed control at 250 g/ha [7]: 0%; pest or weed control at 15.625 g/ha [8]: 0%; pest or weed control at 62.5 g/ha [8]: 0%; pest or weed control at 250 g/ha [8]: 0%; pest or weed control at 15.625 g/ha [9]: 0%; pest or weed control at 62.5 g/ha [9]: 0%; pest or weed control at 250 g/ha [9]: 0%; pest or weed control at 15.625 g/ha [10]: 0%; pest or weed control at 62.5 g/ha [10]: 0%; pest or weed control at 250 g/ha [10]: 10%; plant injury at 15.625 g/ha (corn (Zea mays) [11]): 0%; plant injury at 62.5 g/ha (corn (Zea mays) [11]): 0%; plant injury at 250 g/ha (corn (Zea mays) [11]): 0%; pest or weed control at 15.625 g/ha [12]: 0%; pest or weed control at 62.5 g/ha [12]: 0%; pest or weed control at 250 g/ha [12]: 0%
C=C(C)c1ccccc1NC(=O)[C@H]1C(=O)N(C)C[C@@H]1c1cccc(C(F)(F)F)c1 (racemic) [Compound 1736] | 0 | 0 | 0 | 0 | 0 | 0 | 0 | 30 | 70 | 30 | 80 | 80 | 0 | 0 | 70 | 0 | 0 | 40 | 0 | 20 | pest or weed control at 250 g/ha [7]: 10%; pest or weed control at 15.625 g/ha [8]: 0%; pest or weed control at 62.5 g/ha [8]: 10%; pest or weed control at 250 g/ha [8]: 10%; pest or weed control at 15.625 g/ha [9]: 0%; pest or weed control at 62.5 g/ha [9]: 60%; pest or weed control at 250 g/ha [9]: 90%; pest or weed control at 15.625 g/ha [10]: 80%; pest or weed control at 62.5 g/ha [10]: 90%; pest or weed control at 250 g/ha [10]: 90%; plant injury at 15.625 g/ha (corn (Zea mays) [11]): 0%; plant injury at 62.5 g/ha (corn (Zea mays) [11]): 0%; plant injury at 250 g/ha (corn (Zea mays) [11]): 60%; pest or weed control at 15.625 g/ha [12]: 0%; pest or weed control at 62.5 g/ha [12]: 0%; pest or weed control at 250 g/ha [12]: 0%
